The test system of experiment [1] is NMRI mice. The experiment can be described thus: subcutaneous pentylenetetrazole (scPTZ) induced seizure model. The experiment is classed as in vivo. As to conditions: tested in mixture form. On the procedure:
(§1) Male NMRI albino mice weighing 19-22 g were housed in an environmentally regulated room on a 12 h light: 12 h dark cycle with 25±1° C. and had free access to food and water. The use of animals in experimental protocol was approved by the research committee of the ICCS, University of Karachi, in accordance with the international guidelines for the care and use of laboratory animals. The anticonvulsant activity of compounds in mixture form was determined after intraperitoneal administration to NMRI mice weighing 19-22 g. Maximal electroshock (MES) and subcutaneous pentylenetetrazole (scPTZ) induced seizure models were used to test the anticonvulsant properties of compounds. […] Protection against HLTE in MEST predicts the ability of a testing material to prevent the spread of seizures discharge from the epileptic focus in brain in additions effectiveness in MEST correlates with efficacy in suppressing the generalized tonic-clonic and partial seizures. […] Anticonvulsant activity in the scPTZ test identifies compounds that can raise seizure threshold in the brain.

For experiment [2], the system named is NMRI mice. Put plainly: Maximal electroshock (MES) induced seizure model. It counts as in vivo. As to conditions: tested in mixture form. As for the experimental part: as §1
For orientation: Protection in the maximal electroshock model is a classic sign of anticonvulsant action.

In the case of `CC(=O)/C=C1/C=C(C)CC(C)(C)C1` [Isoxylitone A, 2-Propanone 1-(3,5,5-trimethyl-2-cyclohexen-1-ylidene) (1E)], in the experiment on NMRI mice [1], the “prevention of convulsions in chemically-induced seizure model” value was “able to prevent convulsions”. The “prevention of convulsions in electrically-induced seizure model” value in the experiment on NMRI mice [2] is “able to prevent convulsions”.

For the compound `CC(=O)/C=C1\C=C(C)CC(C)(C)C1` [Isoxylitone B, 2-Propanone, 1-(3,5,5-trimethyl-2-cyclohexen-1-ylidene)-, (1Z)], in the experiment on NMRI mice [1], the “prevention of convulsions in chemically-induced seizure model” value is “able to prevent convulsions”. Also, the “prevention of convulsions in electrically-induced seizure model” value in the experiment with NMRI mice [2] was “able to prevent convulsions”.

(Values after patent publication US7399888B2, “Anticonvulsant compounds” (priority 2006, dated 2008).)
